The subject of experiment [1] is adult male C57 mice. Briefly: Tail suspension test (TST). The experiment is classed as in vivo, mouse. Particulars: TST route sc, p < 0.05 compared to vehicle-treated mice. Here is the method: The experiments were performed using adult male C57 mice (6-10 weeks of age, 20-30 g, Hilltop Lab, PA). The mice were housed in standard rodent cages with stainless steel mesh wire bar lids in groups of 4 with controlled temperature and light cycle (6:00 a.m.-6:00 p.m.). Animals were given free access to food (Harlan Teklad Global 18% protein (Madison, Wis.)) and water during a minimum 2-day habituation period to the laboratory. Animals that were used in the study were handled, housed, and sacrificed (using compressed CO2) in accord with the current NIH guidelines regarding the use and care of laboratory animals, and all applicable local, state, and federal regulations and guidelines. Animals are identified by cage number, and by markings applied to the proximal tip of the tail using a permanent marker. Group sizes (n=8, and therefore 30-50 animals per study) provide reliable estimates of treatment effects, and this species and strain of mouse has been recognized as appropriate for pharmacology studies.
To measure efficacy of the compounds the compounds were tested using a tail suspension test. The tail suspension test is a behavioral test used to evaluate the efficacy of antidepressant drugs in rodents. In the TST, mice (n=8/group) were suspended by the tail with tape approximately 30-50 cm above the lab bench. Mice are positioned such that the base of their tail is perpendicular to the lab bench. Each mouse is given 1 trial that last 6 minutes. The total duration of immobility is calculated as the percentage of time that the mouse is immobile. The duration of immobility is the main parameter measured. This is calculated from the cumulated time during which the animals is absent of initiated movements including passive swaying. When antidepressant drugs are administered, immobility is decreased by a variety of classes of antidepressant drugs. One or more of the compounds show antidepressant activity.

The target in experiment [2] is T1, delta-opioid receptor (Accession NP_000902) (Homo sapiens, UniProt P41143). Nature of the experiment: cAMP assay (receptor G-protein mediated response, HTRF). The experiment is classed as cell-based. The method, then: (§1) Plasmids encoding delta-opioid receptor (Accession NP_000902), mu-opioid receptor (Accession NP_000905) and kappa-opioid receptor (Accession Assession NP_000903) were generated in the pCMV-Prolink backbone and transfected into an EA-arrestin parental human embryonic kidney (HEK-293) cell line from DiscoveRx Corporation. Clonal stable lines were subsequently selected under G418.
T1 sequence (P41143 whole entry): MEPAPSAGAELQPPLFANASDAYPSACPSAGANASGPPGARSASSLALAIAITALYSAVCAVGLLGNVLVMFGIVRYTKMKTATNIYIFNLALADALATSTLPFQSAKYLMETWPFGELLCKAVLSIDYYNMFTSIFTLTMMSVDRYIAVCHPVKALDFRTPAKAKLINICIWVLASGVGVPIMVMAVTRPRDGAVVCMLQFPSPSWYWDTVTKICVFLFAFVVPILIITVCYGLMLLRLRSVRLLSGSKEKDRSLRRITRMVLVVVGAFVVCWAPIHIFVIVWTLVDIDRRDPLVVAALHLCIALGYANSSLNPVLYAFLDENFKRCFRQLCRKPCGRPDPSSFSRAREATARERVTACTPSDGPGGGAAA
Cell lines were grown adherently in Minimum Essential Media (Cellgro cat #10-010-CM) containing 10% fetal bovine serum (Hyclone cat #SH30071.03), 4 mM glutamine (Cellgro cat #25-005-CI), 150 ug/ml hygromycin B (Cellgro cat #30-240-CR), 150 ug/ml G418 (Cellgro cat #30-234-CR), and 50 u/50 ug penicillin/streptomycin (Lonza cat #17-603E). […]
Receptor G-protein mediated responses were determined by measuring changes in intracellular cAMP using CisBio HTRF cAMP HiRange kit (cat #62AM6PEJ) based on time-resolved fluorescence resonance energy transfer (TR-FRET). […] Following a 30 minute incubation at 37° C. the components of the cAMP HiRange kit were added as directed and the plates were read after 1 hour on a BMG PheraStar plate reader. Responses were measured as the ratio of fluorescence at 665 nm/620 nm per manufacturer's instructions.

Experiment [3] addresses T1, delta-opioid receptor (Accession NP_000902). Nature of the experiment: β-arrestin recruitment assay (DiscoveRx PathHunter). Particulars: β-arrestin pathway, HEK-293 stable line. In kind it is cell-based. Here is the method:
as §1
Cell lines were grown adherently in Minimum Essential Media (Cellgro cat #10-010-CM) containing 10% fetal bovine serum (Hyclone cat #SH30071.03), 4 mM glutamine (Cellgro cat #25-005-CI), 150 ug/ml hygromycin B (Cellgro cat #30-240-CR), 150 ug/ml G418 (Cellgro cat #30-234-CR), and 50 u/50 ug penicillin/streptomycin (Lonza cat #17-603E). Prior to the assay cells were removed from the flasks with CellStripper (Cellgro cat #25-056-CI), repeatedly pipetted to disperse cells, and spun at low speed for 5 min at room temperature. Cells were then resuspended at 250,000 cells/ml in growth media and plated at 5,000 cells/well in 384 well plates (Greiner part #784080). […]
Receptor mediated beta-arrestin recruitment was determined using the DiscoveRx β-arrestin PathHunter Detection kit (cat #93-0001). […] Following a 60 minute incubation at 37° C. the components of the DiscoveRx β-arrestin PathHunter Detection kit were added as directed and the plates were read after 1 hour on a BMG PheraStar plate reader.
(Activated receptors often draw arrestin, which recruitment assays turn into a signal.)

The structures appear in SMILES notation.

Regarding `CCCN1C[C@H](COc2ccc3c(c2)C(=O)NC3)[C@@H](c2ccc(F)cc2)C1` [Compound A0045], the “Active TST Dose” value in experiment [1] is given as at most 10 mg/kg.

Consider `CCCN1C[C@H](COc2ccc3c(c2)C(=O)NC3)[C@H](c2ccc(F)cc2)C1` [Compound A0073], for which the “Active TST Dose” value in experiment [1] is on record as at most 30 mg/kg. In the case of `CCCN1C[C@@H](COc2ccc3c(c2)C(=O)NC3)[C@H](c2ccc(F)cc2)C1` [Compound A0090], the “Active TST Dose” value in experiment [1] is on record as at most 10 mg/kg. Take `CCCN1C[C@H](COc2ccc3c(c2)C(=O)NC3)[C@H](c2ccccc2)C1` [Compound A0095]: the “Active TST Dose” value in experiment [1] is given as at most 10 mg/kg. Turning to `O=C1NCc2ccc(OC[C@@H]3CN(CC4CC4)C[C@H]3c3ccc(F)cc3)cc21` [Compound A0105], the “Active TST Dose” value in experiment [1] is at most 10 mg/kg. On to `CCCN1C[C@H](COc2ccc3c(c2)C(=O)NC3)[C@H](c2ccc(F)c(F)c2)C1` [Compound A0108], for which the “Active TST Dose” value in experiment [1] is given as at most 10 mg/kg. In the case of `CCCN1C[C@H](COc2ccc3c(c2)C(=O)NC3)[C@H](c2ccc(OCCN3C(=O)CCC3=O)cc2)C1` [Compound A0113], the “Active TST Dose” value in experiment [1] is listed as at most 10 mg/kg.

As to `COc1ccc([C@@H]2CN(CC3CC3)C[C@@H]2COc2ccc3c(c2)C(=O)NC3)cc1F` [Compound A0116], in experiment [1] (po), the “Active TST Dose” value is at most 30 mg/kg. Consider `CCCN1C[C@@]2(COc3ccc4c(c3)C(=O)NC4)C[C@@]2(c2cccc(F)c2)C1` [Compound A0128], for which the “Active TST Dose” value in experiment [1] (po) is reported as at most 30 mg/kg.

Take `Fc1ccc([C@@H]2CCNC[C@H]2COc2ccc3c(c2)OCO3)cc1` [Paroxetine, paroxetine]: the “hDOR G Span” value in experiment [2] (G-protein (cAMP) pathway, HEK-293 stable line) is under 100. Moreover, the “selectivity for the delta-opioid receptor” value in experiment [2] (versus mu- and kappa-opioid receptor) is listed as “non-selective agonist”. Besides, in experiment [3], the “hDOR B Span” value is recorded as under 100. Besides, the EC50 in experiment [3] (read-out: hDOR B pEC50 (converted)) was over 1000 nM.

Source of the values: patent publication US11702408B2, “5-membered aza-heterocyclic containing delta-opioid receptor modulating compounds, methods of using and making the same” (Trevena, Inc., priority 2017, dated 2023).
